Test results published in patent publication US20180184644A1, “CELL STABILIZATION” (Biomatrica, Inc., priority 2013, published 2018).
“Also recorded” adds a separate entry of the source.

How the values were obtained:
[1] = tested on: human neonatal fibroblasts; assay: Cell viability by ATP content of substantially dry stored human neonatal fibroblasts; assay type: cell-based; set-up: % CELL VIABILITY 24 hr / % CELL VIABILITY 48 hr / % CELL VIABILITY 120 hr: concentration or dose not given beside the values; conditions: for % CELL VIABILITY 24 hr / % CELL VIABILITY 48 hr / % CELL VIABILITY 120 hr: inhibitor in predehydration and rehydration formulation; for % CELL VIABILITY 24 hr: MCS dehydration formulation 41, dry stored 24 hr at ambient temperature; for % CELL VIABILITY 48 hr: MCS dehydration formulation 41, dry stored 48 hr at ambient temperature; for % CELL VIABILITY 120 hr: MCS dehydration formulation 41, dry stored 120 hr at ambient temperature
From the text: ATP content may be determined using a Cell Titer-Glo Luminescent Cell viability Assay (Promega) in accordance with the manufacturer's instructions. The addition of the Cell Titer-Glo Luminescent reagent into the cells generates a luminescent signal proportional to the amount of intracellular ATP. The amount of ATP is directly proportional to the number of cells present in culture, and it is then a homogeneous method of determining the number of viable (metabolically active) cells in the rehydrated cell preparation.
Briefly, human neonatal fibroblasts were suspended in Cascade Media 106 and seeded as 100 ul cultures at a densities of 100-5000 cells per test in 96 well plates and incubated in an environment of ambient atmosphere while maintaining an elevated CO2 level (5%-10%) and temperature of 37 C with relative humidity of 85-95%. The culture is adjusted to specific composition of predehydration formulations and media specified concentration of each apoptosis inhibitor. The cells were incubated for a period of at least one hour but not more than 3 hours hr at 37° C. The predehydration formulation was thoroughly removed and 10-15 ul of MCS dehydration formulation 41 (Table 1) was added to each well. The cells were substantially air dried at 37 C, 5% CO2, 20% relative humidity over a period of 90 minutes, stored at ambient temperature for a period of 24, 48 or 120 hours. At the appropriate time, the substantially dry stored cells were rehydrated by treating with a rehydration formulation comprising the same concentration of apoptosis inhibitor in 100-200 μl of predehydration formulation. Cell viability was determined by measuring ATP content as described herein.

Mammalian cells = conditions: trehalose-loaded dried cells stored for even few minutes; cited from earlier work
HeLa cells = assay: Cell viability by Trypan Blue method of substantially dry stored HeLa cells; assay type: cell-based
Method: Cell viability may be measured using a Trypan Blue staining procedure. […] Cell counting was performed in 9 mm KOVA glass slides 10 with Grid Chambers (Hycor) in triplicate under a Leitz Fluovert microscope. The percentage of cell survival is reported relative to untreated control cells. Briefly, HeLa cells were substantially dry stored using predetermined predehydration formulations (SC1, salubrinal and SC3, MLS-0315763) and a subset of the dehydration formulations set forth in Table 1 for a period of seven hours and then rehydrated using the rehydration formulations listed below (RC1, salubrinal and RC3, MLS-0315763). Cell viability was assessed seven days after rehydration using the Trypan Blue method. The results are shown in Table 3 and FIG. 3A and FIG. 3B.

SMILES | % CELL VIABILITY 24 hr [1] | % CELL VIABILITY 48 hr [1] | % CELL VIABILITY 120 hr [1] | viable cells (in words) ([1]; by 24 hr of dry storage) | cell survival after dry storage (in words) (Mammalian cells) | surviving / viable cells (in words) (HeLa cells; HeLa cells, 7 hours dry storage, 7 days after rehydration) | % HeLa Cell Viability (HeLa cells; dry stored seven hours, Trypan Blue seven days after rehydration)
C[S+]([O-])CCCCN=C=S [L-sulphurophane] | 98.8% | 65.3% | 50.9% | – | – | – | –
O=c1cc(N2CCOCC2)oc2c(-c3ccccc3)cccc12 [LY294002, 2-(4-morpholinyl)-8-phenyl-4H-1-benzopyran-4-one] | 83.8% | 85.9% | 98.7% | – | – | – | –
O=C(NOC[C@H](O)CO)c1ccc(F)c(F)c1Nc1ccc(I)cc1F [PD032591, N-[(2R)-2,3-dihydroxypropoxy]-3,4-difluoro-2-[(2-fluoro-4-iodophenyl)amino]-benzamide] | 100.0% | 85.1% | 95.7% | – | – | – | –
CO[C@H]1C[C@@H]2CC[C@@H](C)[C@@](O)(O2)C(=O)C(=O)N2CCCC[C@H]2C(=O)O[C@H]([C@H](C)C[C@@H]2CC[C@@H](O)[C@H](OC)C2)CC(=O)[C@H](C)/C=C(\C)[C@@H](O)[C@@H](OC)C(=O)[C@H](C)C[C@H](C)/C=C/C=C/C=C/1C [Rapamycin] | 88.4% | 73.2% | 90.0% | – | – | – | –
O=C(/C=C/c1ccccc1)NC(NC(=S)Nc1cccc2cccnc12)C(Cl)(Cl)Cl (stereo not shown) [Salubrinal] | 100.0% | 72.9% | 109.5% | – | – | – | –
OC[C@H]1O[C@H](O[C@H]2O[C@H](CO)[C@@H](O)[C@H](O)[C@H]2O)[C@H](O)[C@@H](O)[C@@H]1O [Trehalose] | 7.5% | 0.0% | 0.0% | little to no viable cells | complete cell death | did not yield in any viable cells; also recorded: did not yield any surviving cells | 0%
